According to patent US10538555B2, “Macrocyclic inhibitors of the PD-1/PD-L1 and CD80(B7-1)/PD-L1 protein/protein interactions” (BRISTOL-MYERS SQUIBB COMPANY, priority 2014, dated 2020):
Where a SMILES comes first, the peptide text is derived from it. Bridges are numbered along the chain shown (N, C = ends). [ ]: non-standard residue; d: D form. Phe(3,4,5-F3) = N[C@@H](Cc1cc(F)c(F)c(F)c1)C(=O)O; d(cisHyp) = O=C(O)[C@H]1C[C@@H](O)CN1; NMeF = CN[C@@H](Cc1ccccc1)C(=O)O; NMeNle = CCCC[C@H](NC)C(=O)O; Orn = NCCC[C@H](N)C(=O)O; Dab = NCC[C@H](N)C(=O)O; Dap = NC[C@H](N)C(=O)O

Target: T1, Human PD-L1/PD-1 (Homo sapiens, UniProt Q9NZQ7)
T1 construct: TVMV protease cleavage site (C); made in house; host or cells: HEK293T cells
T1 sequence (Q9NZQ7 with tags, fused parts or gaps): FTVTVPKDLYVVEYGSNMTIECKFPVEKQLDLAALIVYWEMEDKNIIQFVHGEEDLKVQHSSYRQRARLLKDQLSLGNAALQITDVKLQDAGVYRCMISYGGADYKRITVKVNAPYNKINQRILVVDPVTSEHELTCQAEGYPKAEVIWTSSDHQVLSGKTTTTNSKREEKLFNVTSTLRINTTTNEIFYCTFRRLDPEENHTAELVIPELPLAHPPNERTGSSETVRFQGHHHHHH
Test: HTRF Human PD-L1/PD-1 binding assay (PD-1-Ig/PD-L1-His)
Conditions: PD-L1-His 10 nM, PD-1-Ig 20 nM; class symbol; read-out: HTRF Human PD-L1/PD-1 Binding Assay IC50 Range
Procedure, shortened: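 Inhibitors were preincubated 15 min with human PD-L1(18-239)-His (10 nM final), then PD-1(25-167)-Ig (20 nM final) was added for 15 min in dPBS/0.1% BSA/0.05% Tween-20. Eu-cryptate anti-Ig (1 nM) and APC anti-His (20 nM) were added; 665/620 nm ratio read after 30 min.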

First: CCCC[C@H]1C(=O)N2C[C@H](O)C[C@@H]2C(=O)N[C@@H](CC(=O)O)C(=O)N[C@@H](C(C)C)C(=O)N(C)[C@@H](Cc2ccccc2)C(=O)N[C@@H](CC(=O)O)C(=O)N2C[C@H](O)C[C@@H]2C(=O)N[C@@H](Cc2c[nH]c3ccccc23)C(=O)N[C@@H](Cc2ccc(O)cc2)C(=O)N[C@@H](CC(=O)O)C(=O)N[C@H](C(=O)NCC(N)=O)CSCC(=O)N[C@@H](Cc2cc(F)c(F)c(F)c2)C(=O)N(C)[C@@H](Cc2ccccc2)C(=O)N1C [Example 9350] ({CH2CO}-[Phe(3,4,5-F3)][NMeF][NMeNle][d(cisHyp)]DV[NMeF]D[d(cisHyp)]WYDCG-NH2; thioether N-13)
Second: CCCC[C@H]1C(=O)N2C[C@H](O)C[C@@H]2C(=O)N[C@@H](CC(=O)O)C(=O)N[C@@H](C(C)C)C(=O)N(C)[C@@H](Cc2ccccc2)C(=O)N[C@@H](CC(=O)O)C(=O)N2C[C@H](O)C[C@@H]2C(=O)N[C@@H](Cc2c[nH]c3ccccc23)C(=O)N[C@@H](Cc2ccc(O)cc2)C(=O)N[C@@H](CC(N)=O)C(=O)N[C@H](C(=O)NCC(N)=O)CSCC(=O)N[C@@H](Cc2cc(F)c(F)c(F)c2)C(=O)N(C)[C@@H](Cc2ccccc2)C(=O)N1C [Example 9352] ({CH2CO}-[Phe(3,4,5-F3)][NMeF][NMeNle][d(cisHyp)]DV[NMeF]D[d(cisHyp)]WYNCG-NH2; thioether N-13)
The IC50 of the first is higher: 10 to 99.9 nM for the first, 1 to 9.9 nM for the second.

`CCCC[C@H]1C(=O)N2C[C@H](O)C[C@@H]2C(=O)N[C@@H](CC(=O)O)C(=O)N[C@@H](C(C)C)C(=O)N(C)[C@@H](Cc2ccccc2)C(=O)N[C@@H](CC(=O)O)C(=O)N2C[C@H](O)C[C@@H]2C(=O)N[C@@H](Cc2c[nH]c3ccccc23)C(=O)N[C@@H](Cc2ccc(O)cc2)C(=O)N[C@@H](CCC(N)=O)C(=O)N[C@H](C(=O)NCC(N)=O)CSCC(=O)N[C@@H](Cc2cc(F)c(F)c(F)c2)C(=O)N(C)[C@@H](Cc2ccccc2)C(=O)N1C` [Example 9351] ({CH2CO}-[Phe(3,4,5-F3)][NMeF][NMeNle][d(cisHyp)]DV[NMeF]D[d(cisHyp)]WYQCG-NH2; thioether N-13) and `CCCC[C@H]1C(=O)N2C[C@H](O)C[C@@H]2C(=O)N[C@@H](CC(=O)O)C(=O)N[C@@H](C(C)C)C(=O)N(C)[C@@H](Cc2ccccc2)C(=O)N[C@@H](CCC(N)=O)C(=O)N2C[C@H](O)C[C@@H]2C(=O)N[C@@H](Cc2c[nH]c3ccccc23)C(=O)N[C@@H](Cc2ccc(O)cc2)C(=O)N[C@@H](CC(=O)O)C(=O)N[C@H](C(=O)NCC(N)=O)CSCC(=O)N[C@@H](Cc2cc(F)c(F)c(F)c2)C(=O)N(C)[C@@H](Cc2ccccc2)C(=O)N1C` [Example 9358] ({CH2CO}-[Phe(3,4,5-F3)][NMeF][NMeNle][d(cisHyp)]DV[NMeF]Q[d(cisHyp)]WYDCG-NH2; thioether N-13) fall in the same range of IC50: 10 to 99.9 nM for the first, 10 to 99.9 nM for the second.

`CCCC[C@H]1C(=O)N2C[C@H](O)C[C@@H]2C(=O)N[C@@H](CC(=O)O)C(=O)N[C@@H](C(C)C)C(=O)N(C)[C@@H](Cc2ccccc2)C(=O)N[C@@H](CCC(N)=O)C(=O)N2C[C@H](O)C[C@@H]2C(=O)N[C@@H](Cc2c[nH]c3ccccc23)C(=O)N[C@@H](Cc2ccc(O)cc2)C(=O)N[C@@H](CCCCN)C(=O)N[C@H](C(=O)NCC(N)=O)CSCC(=O)N[C@@H](Cc2cc(F)c(F)c(F)c2)C(=O)N(C)[C@@H](Cc2ccccc2)C(=O)N1C` [Example 9353] ({CH2CO}-[Phe(3,4,5-F3)][NMeF][NMeNle][d(cisHyp)]DV[NMeF]Q[d(cisHyp)]WYKCG-NH2; thioether N-13) and `CCCC[C@H]1C(=O)N2C[C@H](O)C[C@@H]2C(=O)N[C@@H](CC(=O)O)C(=O)N[C@@H](C(C)C)C(=O)N(C)[C@@H](Cc2ccccc2)C(=O)N[C@@H](CCC(N)=O)C(=O)N2C[C@H](O)C[C@@H]2C(=O)N[C@@H](Cc2c[nH]c3ccccc23)C(=O)N[C@@H](Cc2ccc(O)cc2)C(=O)N[C@@H](CCCN)C(=O)N[C@H](C(=O)NCC(N)=O)CSCC(=O)N[C@@H](Cc2cc(F)c(F)c(F)c2)C(=O)N(C)[C@@H](Cc2ccccc2)C(=O)N1C` [Example 9354] ({CH2CO}-[Phe(3,4,5-F3)][NMeF][NMeNle][d(cisHyp)]DV[NMeF]Q[d(cisHyp)]WY[Orn]CG-NH2; thioether N-13) fall in the same range of IC50: 1 to 9.9 nM for the first, 1 to 9.9 nM for the second.

First: CCCC[C@H]1C(=O)N2C[C@H](O)C[C@@H]2C(=O)N[C@@H](CC(=O)O)C(=O)N[C@@H](C(C)C)C(=O)N(C)[C@@H](Cc2ccccc2)C(=O)N[C@@H](CCC(N)=O)C(=O)N2C[C@H](O)C[C@@H]2C(=O)N[C@@H](Cc2c[nH]c3ccccc23)C(=O)N[C@@H](Cc2ccc(O)cc2)C(=O)N[C@@H](CCN)C(=O)N[C@H](C(=O)NCC(N)=O)CSCC(=O)N[C@@H](Cc2cc(F)c(F)c(F)c2)C(=O)N(C)[C@@H](Cc2ccccc2)C(=O)N1C [Example 9355] ({CH2CO}-[Phe(3,4,5-F3)][NMeF][NMeNle][d(cisHyp)]DV[NMeF]Q[d(cisHyp)]WY[Dab]CG-NH2; thioether N-13)
Second: CCCC[C@H]1C(=O)N2C[C@H](O)C[C@@H]2C(=O)N[C@@H](CC(=O)O)C(=O)N[C@@H](C(C)C)C(=O)N(C)[C@@H](Cc2ccccc2)C(=O)N[C@@H](CCC(N)=O)C(=O)N2C[C@H](O)C[C@@H]2C(=O)N[C@@H](Cc2c[nH]c3ccccc23)C(=O)N[C@@H](Cc2ccc(O)cc2)C(=O)N[C@@H](CCC(=O)O)C(=O)N[C@H](C(=O)NCC(N)=O)CSCC(=O)N[C@@H](Cc2cc(F)c(F)c(F)c2)C(=O)N(C)[C@@H](Cc2ccccc2)C(=O)N1C [Example 9357] ({CH2CO}-[Phe(3,4,5-F3)][NMeF][NMeNle][d(cisHyp)]DV[NMeF]Q[d(cisHyp)]WYECG-NH2; thioether N-13)
The IC50 of the first is lower: 1 to 9.9 nM for the first, 10 to 99.9 nM for the second.

`CCCC[C@H]1C(=O)N2C[C@H](O)C[C@@H]2C(=O)N[C@@H](CC(=O)O)C(=O)N[C@@H](C(C)C)C(=O)N(C)[C@@H](Cc2ccccc2)C(=O)N[C@@H](CCC(N)=O)C(=O)N2C[C@H](O)C[C@@H]2C(=O)N[C@@H](Cc2c[nH]c3ccccc23)C(=O)N[C@@H](Cc2ccc(O)cc2)C(=O)N[C@@H](CC(N)=O)C(=O)N[C@H](C(=O)NCC(N)=O)CSCC(=O)N[C@@H](Cc2cc(F)c(F)c(F)c2)C(=O)N(C)[C@@H](Cc2ccccc2)C(=O)N1C` [Example 9360] ({CH2CO}-[Phe(3,4,5-F3)][NMeF][NMeNle][d(cisHyp)]DV[NMeF]Q[d(cisHyp)]WYNCG-NH2; thioether N-13) and `CCCC[C@H]1C(=O)N2C[C@H](O)C[C@@H]2C(=O)N[C@@H](CC(=O)O)C(=O)N[C@@H](C(C)C)C(=O)N(C)[C@@H](Cc2ccccc2)C(=O)N[C@@H](CC(N)=O)C(=O)N2C[C@H](O)C[C@@H]2C(=O)N[C@@H](Cc2c[nH]c3ccccc23)C(=O)N[C@@H](Cc2ccc(O)cc2)C(=O)N[C@@H](CC(C)C)C(=O)N[C@H](C(=O)NCC(N)=O)CSCC(=O)N[C@@H](Cc2cc(F)c(F)c(F)c2)C(=O)N(C)[C@@H](Cc2ccccc2)C(=O)N1C` [Example 9361] ({CH2CO}-[Phe(3,4,5-F3)][NMeF][NMeNle][d(cisHyp)]DV[NMeF]N[d(cisHyp)]WYLCG-NH2; thioether N-13) fall in the same range of IC50: 1 to 9.9 nM for the first, 1 to 9.9 nM for the second.

Same assay, conditions: PD-L1-His 10 nM, PD-1-Ig 20 nM; read-out: HTRF Human PD-L1/PD-1 Binding Assay IC50

Work on `CCCC[C@H]1C(=O)N2C[C@H](O)C[C@@H]2C(=O)N[C@@H](CC(=O)O)C(=O)N[C@@H](C(C)C)C(=O)N(C)[C@@H](Cc2ccccc2)C(=O)N[C@@H](CCC(N)=O)C(=O)N2C[C@H](O)C[C@@H]2C(=O)N[C@@H](Cc2c[nH]c3ccccc23)C(=O)N[C@@H](Cc2ccc(O)cc2)C(=O)N[C@@H](CN)C(=O)N[C@H](C(=O)NCC(N)=O)CSCC(=O)N[C@@H](Cc2cc(F)c(F)c(F)c2)C(=O)N(C)[C@@H](Cc2ccccc2)C(=O)N1C` [Example 9356] ({CH2CO}-[Phe(3,4,5-F3)][NMeF][NMeNle][d(cisHyp)]DV[NMeF]Q[d(cisHyp)]WY[Dap]CG-NH2; thioether N-13) yielded an IC50 of 151 nM.
